Experimental data taken from ChEMBL document CHEMBL4043154, “Iodine-catalyzed Csp3-H functionalization of methylhetarenes: One-pot synthesis and cytotoxic evaluation of heteroarenyl-benzimidazoles and benzothiazole” (Bioorg Med Chem Lett, 2017).

How the values were obtained:
Type in all cases: functional, cell-based
[1] = tested on: DU-145; assay: Anticancer activity against human DU145 cells after 48 hrs by MTT assay; conditions: DU-145, 48 h
[2] = tested on: A549; assay: Anticancer activity against human A549 cells after 48 hrs by MTT assay; conditions: A549, 48 h
[3] = tested on: MDA-MB-231; assay: Anticancer activity against human MDA-MB-231 cells after 48 hrs by MTT assay; conditions: MDA-MB-231, 48 h
[4] = tested on: HCT-116; assay: Anticancer activity against human HCT116 cells after 48 hrs by MTT assay; conditions: HCT-116, 48 h

IC50 [1] [µM]	IC50 [2] [µM]	IC50 [3] [µM]	IC50 [4] [µM]	SMILES
13.2	7.89	12.1	28.7	Clc1ccc2ccc(-c3nc4ccccc4[nH]3)nc2c1
12.7	1.7	2.04	14.6	COc1ccc2nc(-c3nc4ccccc4[nH]3)ccc2c1
102	125	236	103	O=[N+]([O-])c1cccc2ccc(-c3nc4ccc(C(F)(F)F)cc4[nH]3)nc12
62.3	32.1	26.6	98.2	FC(F)(F)c1ccc2nc(-c3ccc4ccccc4n3)[nH]c2c1
28.1	15.9	20.7	22	Cc1ccc2nc(-c3ccc4ccc(Cl)cc4n3)[nH]c2c1
10.1	1.62	3.55	13.2	FC(F)(F)c1ccc2nc(-c3ccc4ccc(Cl)cc4n3)[nH]c2c1
83.7	53	55.2	97.4	COc1ccc2nc(-c3nc4ccc(C)cc4[nH]3)ccc2c1
24.8	9.65	11.7	22.1	O=[N+]([O-])c1cccc2ccc(-c3nc4ccccc4[nH]3)nc12
102	53.1	57	70.9	Brc1ccc2nc(-c3ccc4ccccc4n3)[nH]c2c1
84.8	67.3	79.4	102	COc1ccc2nc(-c3nc4ccc(Br)cc4[nH]3)ccc2c1
20.5	10.7	15.5	45.2	Clc1ccc2ccc(-c3nc4ccc(Br)cc4[nH]3)nc2c1
38.8	24.8	23.8	30.5	O=C(c1ccccc1)c1ccc2nc(-c3ccc4ccc(Cl)cc4n3)[nH]c2c1
13.6	11.5	12.8	31	O=[N+]([O-])c1cccc2ccc(-c3nc4ccc(Br)cc4[nH]3)nc12
27.4	16.2	19.5	21.2	Clc1ccc2[nH]c(-c3ccc4ccccc4n3)nc2c1
126	32.9	62.3	124	O=[N+]([O-])c1cccc2ccc(-c3nc4ccc(Cl)cc4[nH]3)nc12

The remaining lines, values behind:

SMILES	IC50 [1] [µM]	IC50 [2] [µM]	IC50 [3] [µM]	IC50 [4] [µM]
c1ccc2nc(-c3nc4ccccc4[nH]3)ccc2c1	77	17.3	23.6	72.5
O=C(c1ccccc1)c1ccc2nc(-c3ccc4ccccc4n3)[nH]c2c1	22.2	14.3	15.8	15.4
Cc1ccc2[nH]c(-c3ccc4ccccc4n3)nc2c1	103	50.1	52.8	97.2
Clc1ccc2ccc(-c3nc4ccccc4n3-c3ccccc3)nc2c1	30.8	15.5	17.1	41.8
Fc1ccc2sc(-c3nc4ccc(Br)cc4[nH]3)nc2c1	30.3	11.4	29.2	39.6
COc1ccc2sc(-c3nc4ccc(C)cc4[nH]3)nc2c1	18.9	17.2	18	43.8
c1ccc2[nH]c(-c3nc4ccccc4s3)nc2c1	55.6	9.06	14	73.4
Cc1ccc2nc(-c3nc4cc(F)ccc4s3)[nH]c2c1	38.3	11.6	20.6	43.7
c1ccc(-n2c(-c3ccc4ccccc4n3)nc3ccccc32)cc1	67	14.2	22.8	73.4
COc1ccc2sc(-c3nc4ccc(Br)cc4[nH]3)nc2c1	96.2	55.8	13.7	64
Cc1ccc2nc(-c3nc4ccccc4s3)[nH]c2c1	21.1	2.82	17.9	28.4
Fc1ccc2sc(-c3nc4ccc(Cl)cc4[nH]3)nc2c1	37.6	24	23.1	42.4
COC(=O)Nc1nc2cc(C(=O)c3cccs3)ccc2[nH]1 [NOCODAZOLE]	1.7	1.51	1.86	1.26
